pIC50: −log10 of the molar value. Where a name gives a salt, the structure may show the parent alone. Read-outs that look alike come from different tables or passages of the source.

The values that follow come from patent US6022880A, “Substituted pyridylamino indoles” (Hoechst Marion Roussel, Inc., priority 1997, dated 2000).

One experiment addresses T1, 5HT3 receptor (Rattus norvegicus, UniProt P35563).
T1 sequence (P35563 24-483): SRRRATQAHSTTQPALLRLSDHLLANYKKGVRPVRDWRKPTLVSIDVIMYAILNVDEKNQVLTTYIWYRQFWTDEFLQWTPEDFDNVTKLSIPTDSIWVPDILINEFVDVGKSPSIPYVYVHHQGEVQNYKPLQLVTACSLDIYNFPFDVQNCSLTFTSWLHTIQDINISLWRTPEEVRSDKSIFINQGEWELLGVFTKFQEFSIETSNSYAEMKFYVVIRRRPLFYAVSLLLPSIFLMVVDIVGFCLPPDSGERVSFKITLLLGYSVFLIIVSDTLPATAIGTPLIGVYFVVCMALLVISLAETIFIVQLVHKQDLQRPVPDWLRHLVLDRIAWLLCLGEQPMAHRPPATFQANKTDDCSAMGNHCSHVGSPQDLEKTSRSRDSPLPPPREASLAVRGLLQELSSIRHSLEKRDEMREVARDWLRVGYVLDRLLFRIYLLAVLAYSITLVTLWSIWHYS
Put plainly: biochemical. Format: binding, rat (male Wistar, entorhinal cortex). The procedure:
The homogenate is centrifuged at 48,000 g for 15 minutes at 4° C.
The filters are dried and counted in 10 ml of liquid scintillation cocktail.

In experiment [1] the test system is serotonin uptake, rat whole brain synaptosomes. Put plainly: Inhibition of [3H]-Serotonin Uptake in Rat Whole Brain Synaptosomes. As to conditions: [3H]-5HT 50 nM, read-out: C: Inhibition of serotonin uptake, IC50. Format: biochemical, rat (male Wistar). As for the experimental part:
(C) Inhibition of [^3 H]-Serotonin Uptake in Rat Whole Brain Synaptosomes
(§1) A. Animals: Male CR Wistar Rats (100-125 g).
The final desired concentration of ^3 H-5HT in the assay is 50 nM. The dilution factor is 0.8.
5. For most assays, a 1 mM solution of the test compound is made up in suitable solvent and serially diluted such that the final concentration in the assay ranges from 2×10^-8 to 2×10^-5 M. Seven concentrations are used for each assay.
Male Wistar rats are decapitated and the brain rapidly removed. Whole brain minus cerebella is weighed and homogenized in 9 volumes of ice-cold 0.32 M sucrose using a Potter-Elvejhem homogenizer. Homogenization should be done with 4-5 up and down strokes at medium speeds to minimize synaptosome lysis. The homogenate is centrifuged at 1000 g for 10 min. at 0-4° C. The supernatant (S1) is decanted and is used for uptake experiments.
(§2) Tubes are incubated at 37° C. under a 95% O2 /5% CO2 atmosphere for 5 minutes. For each assay, 3 tubes are incubated with 20 μl of vehicle at 0° C. in an ice bath. After incubation all tubes are immediately centrifuged at 4000 g for 10 minutes. The supernatant fluid is aspirated and the pellets dissolved by adding 1 ml of solubilizer (Tritor. X-100+50% EtOH, 1:4 v/v). The tubes are vigorously vortexed, decanted into scintillation vials, and counted in 10 ml of Liquiscint scintillation counting cocktail. Active uptake is the difference between cpm at 37° C. and 0° C. The percent inhibition at each drug concentration is the mean of three determinations. IC50 values are derived from log-probit analysis.

In experiment [2] the test system is dopamine uptake, rat striatal synaptosomes. Put plainly: Inhibition of 3H-Dopamine Uptake in Rat Striatal Synaptosomes. In kind it is biochemical, rat (male Wistar). The note with it: 3H-DA 50 nM, read-out: D: Inhibition of dopamine uptake, IC50. As for the experimental part: (D) Inhibition of ^3 H-Dopamine Uptake in Rat Striatal Synaptosomes
This assay is used to show differential drug effects on dopamine uptake versus norepinephrine uptake and to identify therapeutic agents for diseases where the potentiation of dopaminergic activity may be helpful (e.g. Parkinson's Disease).
as §1
The final desired concentration of ^3 H-DA in the assay is 50 nM. The dilution factor is 0.9. Therefore, the KHBB is made up to contain 55.5 nM [^3 H]-5DA.
5. For most assays, a 1 mM stock solution of the test compound is made up in a suitable solvent and serially diluted such that the final concentration in the assay ranges from 2×10^-8 to 2×10^-5 M. Seven concentrations are used for each assay. Higher or lower concentrations may be used depending on the potency of the compound.
Male Wistar rats are decapitated and the brain rapidly removed. Corpora striata are rapidly removed, weighed and homogenized in 9 volumes of ice-cold 0.32 M sucrose using a Potter-Elvejhem homogenizer. Homogenization should be done with 4-5 up and down strokes at medium speeds to minimize synaptosome lysis. The homogenate is centrifuged at 1000 g for 10 min. at 0-4° C. The supernatant (S1) is decanted and is used for uptake experiments.
as §2, with “(Triton” for “(Tritor.”

The subject of experiment [3] is norepinephrine uptake, rat whole brain or hypothalamic synaptosomes. Put plainly: Inhibition of [3H]-Norepinephrine Uptake in Rat Whole Brain or Hypothalamic Synaptosomes. The note with it: [3H]-NE 50 nM, read-out: E: Inhibition of norepinephrine uptake, IC50. In kind it is biochemical, rat (male Wistar). As for the experimental part:
(E) Inhibition of [^3 H]-Norepinephrine Uptake in Rat Whole Brain or Hypothalamic Synaptosomes
This assay is used as a biochemical screen for potential antidepressants which block norepinephrine uptake.
A. Animals: Male CR Wistar rats (100-125 g).
The final desired concentration of [^3 H]-NE in the assay is 50 nM. The dilution factor is 0.8.
5. For most assays, a 1 mM stock solution of the test compound is made up in a suitable solvent and serially diluted such that the final concentration in the assay ranges from 2×10^-8 to 2×10^-5 M. Seven concentrations are used for each assay.
Male Wistar rats are decapitated and the brain rapidly removed. Either whole brain minus cerebella or hypothalamus is weighed and homogenized in 9 volumes of ice-cold 0.32 M sucrose using a Potter-Elvejhem homogenizer. Homogenization should be done with 4-5 up and down strokes at medium speeds to minimize synaptosome lysis. The homogenate is centrifuged at 1000 g for 10 min. at 0-4° C. The supernatant (S1) is decanted and is used for uptake experiments.
as §2, with “(Triton” for “(Tritor.”

The subject of experiment [4] is rats (schedule-induced polydipsia). Put plainly: Schedule-Induced Polydipsia in Rats. Format: in vivo, rat (male Wistar). As to conditions: i.p., daily; rats tested once a week. The source says: Schedule-Induced Polydipsia in Rats
Food deprived rates exposed to a fixed-interval feeding schedule and allowed free access to water develop an excessive drinking behavior known as polydipsia. This schedule-induced polydipsia (SIP) cannot be explained in terms of a physiological deficit due to water deprivation. Furthermore,it offers no benefit or reward to the rat (1). Just as SIP involves the exaggeration of the normal drinking behavior, the compulsive symptoms of obsessive-compulsive disorder (OCD) can be considered an exaggeration of normal human behaviors.
Male Wistar rats (Charles River) weighing 180-220 grams were individually housed and maintained in accordance with the "NIH Guide to Care and Use of Laboratory Animals" (National Institute of Health Care Publications, No. 85-23, revised 1985) with a 12 hour light; 12 hour dark cycle and allowed free access to water. The rats were placed on a restricted diet which maintained 80% of their free feeding body weight. To induce polydipsia, rats were placed in operant chambers housed in sound attenuated boxes where a pellet dispenser automatically dispensed two 45 mg (Noyes) pellets on a fixed-interval 60 second (FI-60 sec.) schedule over a 150 minute test session. Water was available at all times in the operant chambers. After four weeks (Monday through Friday) of exposure to the FI-60 sec. feeding schedule, approximately 80% of the rats met a pre-determined criterion for water consumption (greater than 60 mls of water per session) and were considered polydipsic. Rats (N=8) were administered, intraperitoneally (IP), vehicle or the appropriate compound daily. Once dosing commenced, the rats were tested in the operant chambers once a week to assess SIP.
Compounds were either dissolved or suspended in distilled water plus a drop of Tween 80 and injected IP in a dosage volume of 1 ml/kg. The final volume was prepared to account for salt content and the dosage was expressed as 100% base.

A further experiment addresses T2, 5HT1A receptor (Rattus norvegicus, UniProt P19327).
T2 construct: Hippocampi are removed, weighed and homogenized in 20 volumes of 0.05 M Tris buffer; from tissue; host or cells: rat hippocampus membranes (male Wistar)
T2 sequence (P19327 1-422): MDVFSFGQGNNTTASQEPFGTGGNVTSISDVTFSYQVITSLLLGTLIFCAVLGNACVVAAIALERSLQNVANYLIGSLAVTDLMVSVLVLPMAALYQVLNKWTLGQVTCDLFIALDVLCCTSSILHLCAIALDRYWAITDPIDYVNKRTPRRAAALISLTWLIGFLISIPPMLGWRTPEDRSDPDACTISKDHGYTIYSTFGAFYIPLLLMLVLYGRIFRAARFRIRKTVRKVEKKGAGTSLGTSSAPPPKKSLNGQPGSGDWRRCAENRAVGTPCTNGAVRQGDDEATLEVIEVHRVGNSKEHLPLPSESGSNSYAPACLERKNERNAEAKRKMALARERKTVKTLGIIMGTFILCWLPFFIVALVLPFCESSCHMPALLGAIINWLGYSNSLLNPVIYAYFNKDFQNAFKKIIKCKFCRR
In words: [3H]DPAT Binding to Serotonin Receptors of 5HT1A Type. On the set-up: species or system rat (male Wistar, hippocampus). The note with it: [3H]DPAT 0.5 nM, rat hippocampal membranes.

Experiment [5] relates to norepinephrine uptake (active transport system). The note with it: high-affinity, sodium dependent active transport system; literature; read-out: Km (NE uptake); cited from earlier work.
Where [6] appears, read: [3H]-GR65630 0.4 nM, rat entorhinal cortex, read-out: B: 5HT3 receptor binding, IC50.

Experimental for 5HT1A receptor: The purpose of this assay is to determine the affinity of test compounds for the 5HT1A receptor in the brain.
Serotonin creatinine sulfate. 0.5 mM stock solution is made up in 0.01 N HCl and 20 μl added to 3 tubes for determination of nonspecific binding (final concentration=10 μM).
Test Compounds. For most assays, a 1 mM stock solution is made up in a suitable solvent and serially diluted, such that the final concentration in the assay ranges from 2×10^-5 to 2×10^-8 M. Seven concentrations are used for each assay.
Male Wistar rats are sacrificed by decapitation. Hippocampi are removed, weighed and homogenized in 20 volumes of 0.05 M Tris buffer, pH 7.7. The homogenate is centrifuged at 48,000 g for 10 minutes and the supernatant is discarded. […]
Tubes are incubated for 15 minutes at 25° C. […] The filters are then placed into scintillation vials with 10 ml of Liquiscint scintillation cocktail and counted.
Specific binding is defined as the difference between total binding and binding in the presence of 10 μM 5HT. IC50 values are calculated from the percent specific binding at each drug concentration. […]
Tubes are incubated for 15 minutes at 25° C. […] The filters are then placed into scintilltion vials with 10 ml of Liquiscint scintillation cocktail and counted. […] IC50 values are calculated from the percent specific binding at each drug concentration.

For `CCCN(c1ccncc1)c1csc2cc(Cl)ccc12.Cl` [6-Chloro-3-(propyl-4-pyridinylamino)benzo[b]thiophene hydrochloride], the pIC50 (usually −log10 of the IC50, conventionally taken in molar units) is 5.59 at 5HT3 receptor (setting [6]) and 7.22 in experiment [1]. In addition, the IC50 (commonly the concentration that gives 50% inhibition) amounted to 560 nM in experiment [2] and 210 nM in experiment [3]. The “inhibition of SIP (schedule-induced polydipsia), active dose” value (“inhibition of SIP” below) in experiment [4] is “Active at 30 and 15”.

On to `c1ccc2c(Nc3ccncc3)c[nH]c2c1` [3-(4-pyridinylamino)-1H-indole], for which the pIC50 on 5HT1A receptor was 5.19; at 5HT3 receptor (setting [6]), 5.26; in experiment [1] it was 4.84. For the same molecule, the IC50 in experiment [3] was 1000 nM.

As for `CNCCC(Oc1ccc(C(F)(F)F)cc1)c1ccccc1` (stereo not drawn) [Fluoxetine, reference compound], the “inhibition of SIP” value in experiment [4] is given as “Active at 5”.

For the molecule `CN(C)CCCN1c2ccccc2CCc2ccc(Cl)cc21` [Clomipramine, reference compound], in experiment [4], the “inhibition of SIP” value is “Active at 5”.

Consider `CC(C)CN(c1ccncc1)c1csc2cc(Cl)ccc12.Cl` [6-Chloro3-[(2-methylpropyl)(4-pyridinyl)amino]benzo[b]thiophen hydrochloride], for which the “inhibition of SIP” value in experiment [4] is listed as “Active at 15”.

For `NC[C@H](O)c1ccc(O)c(O)c1` [norepinephrine], the Km (as a rule, the substrate concentration at which the rate is half of its maximum) in experiment [5] was 0.1 to 1 µM.

For the molecule `CC(C)CN(c1ccncc1)c1csc2cc(C(F)(F)F)ccc12.Cl` [3-[(2-Methylpropyl)(4-pyridinylamino)]-6-trifluoromethylbenzo[b]thiophene hydrochloride], in experiment [4], the “inhibition of SIP” value is “Active at 15”.

Molecule `CN1[C@@H]2CC[C@H]1C[C@@H](OC(=O)c1cc(Cl)cc(Cl)c1)C2` [MDL 72222, reference compound] had a pIC50 on 5HT3 receptor of 6.28.

Take `CCCN(c1ccncc1)c1cc2ccccc2s1` [2-(Propyl-4-pyridinylamino)benzo[b]thiophene hydrochloride]: the pIC50 in experiment [1] was 6.62. The 50% inhibitory concentration (IC50) in experiment [2] is 91 nM; in experiment [3], 55 nM.
